According to patent publication US20220400680A1, “USE OF ACYLCYANAMIDES OR SALTS THEREOF FOR REGULATING PLANT GROWTH” (Alzchem Trostberg GmbH, priority 2019, published 2022):

How the values were obtained:
[1] = system: Table apple, type Boiken apple (C1); test: Greenhouse test, cut apple branches C1 dipped in test solution, bud development stage; format: in vivo, Malus domestica; set-up: key to Bud development stage, apple branches C1: Stage 0: Buds unchanged; Stage 1: Buds slightly swollen, first green tips visible; Stage 2: strongly swollen, green buds; Stage 3: Buds before breaking open, leaf or flower root already visible; Stage 4: Flower buds fully developed, but still closed, white petals already visible. In the case of the grapevine, stage 4 was the unfolding of the first leaves; Stage 5: Flowers fully open or, in the case of grapevine, unfolding of the flower roots (“Gescheine”) on the fully leafed sprouts; conditions: for Dormancy-breaking effect according to the definition, apple C1: stage 4 reached or exceeded after 36 days vs negative control
Description: Greenhouse tests were conducted using cut fruit tree branches placed in water jars and maintained under controlled conditions with temperature regulation at approximately 22° C. and natural lighting. C1: Table Apple, Type Boiken Apple Table apple: Malus domestica type Boiken first described in 1828 in Bremen after Deichvogt Boiken. Apple type for rough locations and for almost every soil suitable scattered fruit type, whereby heavy soils and not too warm locations are required. Tree growth initially strong, later medium. Older crowns become broadly spherical and are loosely branched. Flowering starting medium-late and long lasting, petals large with little pink. Yield starting late (October) and irregular; with long shelf life and pressure resistance. […] The test solutions were prepared directly, i.e. without intermediate preparation of a concentrate. For each of the test substances A-1 to A-13, an aqueous solution of 0.15 mol of the test substance and 0.15 g BreakThru® OE-446 was prepared and filled up to a total of 500 g with water. Of bis-cyanamides A-14 and A-15, 0.075 mol each was filled up to 500 g in an analogous manner. These test solutions (in combination with the above 4 species/types Cx) were given the test numbers Cx-A1 to Cx-A15. […] This was done with the following evaluation scale: • Stage 0: […] Flower buds fully developed, but still closed, white petals already visible. […] Flowers fully open or, in the case of grapevine, unfolding of the flower roots (“[…]”) on the fully leafed sprouts.

[2] = system: Table apple, type Zabergäu-Renette (C2); test: Greenhouse test, cut apple branches C2 dipped in test solution, bud development stage; format: in vivo, Malus domestica; set-up: key to Bud development stage, apple branches C2: Stage 0: Buds unchanged; Stage 1: Buds slightly swollen, first green tips visible; Stage 2: strongly swollen, green buds; Stage 3: Buds before breaking open, leaf or flower root already visible; Stage 4: Flower buds fully developed, but still closed, white petals already visible. In the case of the grapevine, stage 4 was the unfolding of the first leaves; Stage 5: Flowers fully open or, in the case of grapevine, unfolding of the flower roots (“Gescheine”) on the fully leafed sprouts; conditions: for Dormancy-breaking effect according to the definition, apple C2: stage 4 reached or exceeded after 36 days vs negative control
Description: Greenhouse tests were conducted using cut fruit tree branches placed in water jars and maintained under controlled conditions with temperature regulation at approximately 22° C. and natural lighting. C2: Table Apple, Type […] Table apple: Malus domestica type […] first developed in 1885 as a chance seedling in Hausen a.d. Zaber/Baden-Württemberg and initially grown as 'Hausener Graue […]'. No defined storage type; requires heavy soils (loam). Tree growth initially strong with oblique upright leading branches, later medium with flat branches. Crown broad and flat-spherical with flat fruiting wood. Leaves large, broad oval and with clearly separated tip. Triploid type with late and long-lasting flowering. Yield starting early, medium high and somewhat alternate. […] The test solutions were prepared directly, i.e. without intermediate preparation of a concentrate. For each of the test substances A-1 to A-13, an aqueous solution of 0.15 mol of the test substance and 0.15 g BreakThru® OE-446 was prepared and filled up to a total of 500 g with water. Of bis-cyanamides A-14 and A-15, 0.075 mol each was filled up to 500 g in an analogous manner. These test solutions (in combination with the above 4 species/types Cx) were given the test numbers Cx-A1 to Cx-A15. […] This was done with the following evaluation scale: • Stage 0: […] Flower buds fully developed, but still closed, white petals already visible. […] Flowers fully open or, in the case of grapevine, unfolding of the flower roots (“[…]”) on the fully leafed sprouts.

[3] = system: Table cherry, type Burlat (C3); test: Greenhouse test, cut cherry branches C3 dipped in test solution, bud development stage; format: in vivo, Prunus avium; set-up: key to Bud development stage, cherry branches C3: Stage 0: Buds unchanged; Stage 1: Buds slightly swollen, first green tips visible; Stage 2: strongly swollen, green buds; Stage 3: Buds before breaking open, leaf or flower root already visible; Stage 4: Flower buds fully developed, but still closed, white petals already visible. In the case of the grapevine, stage 4 was the unfolding of the first leaves; Stage 5: Flowers fully open or, in the case of grapevine, unfolding of the flower roots (“Gescheine”) on the fully leafed sprouts; conditions: for Good to very good dormancy-breaking effect, cherry C3: stage 4 reached or exceeded after 21 days vs negative control; for Dormancy-breaking effect according to the definition, cherry C3: stage 4 reached or exceeded after 27 days vs negative control
Description: Greenhouse tests were conducted using cut fruit tree branches placed in water jars and maintained under controlled conditions with temperature regulation at approximately 22° C. and natural lighting. C3: Table Cherry, Type Burlat Table cherry: Prunus avium type Bigarreau Burlat or […] is a strong-growing somewhat sparse growing sweet cherry tree with horizontal side sprouts. The type has been known since 1930 and is one of the most important types in commercial cultivation. […] Medium but regular yields identify the type as a secondary type for early and dry areas. […] The test solutions were prepared directly, i.e. without intermediate preparation of a concentrate. For each of the test substances A-1 to A-13, an aqueous solution of 0.15 mol of the test substance and 0.15 g BreakThru® OE-446 was prepared and filled up to a total of 500 g with water. Of bis-cyanamides A-14 and A-15, 0.075 mol each was filled up to 500 g in an analogous manner. These test solutions (in combination with the above 4 species/types Cx) were given the test numbers Cx-A1 to Cx-A15. […] This was done with the following evaluation scale: • Stage 0: […] Flower buds fully developed, but still closed, white petals already visible. […] Flowers fully open or, in the case of grapevine, unfolding of the flower roots (“[…]”) on the fully leafed sprouts.

[4] = system: Grape, type Pinot Noir (C4); test: Greenhouse test, cut wine sprouts C4 dipped in test solution, bud development stage; format: in vivo, Vitis vinifera subsp. vinifera; set-up: key to Bud development stage, wine sprouts C4: Stage 0: Buds unchanged; Stage 1: Buds slightly swollen, first green tips visible; Stage 2: strongly swollen, green buds; Stage 3: Buds before breaking open, leaf or flower root already visible; Stage 4: Flower buds fully developed, but still closed, white petals already visible. In the case of the grapevine, stage 4 was the unfolding of the first leaves; Stage 5: Flowers fully open or, in the case of grapevine, unfolding of the flower roots (“Gescheine”) on the fully leafed sprouts; conditions: for Dormancy-breaking effect according to the definition, wine C4: stage 4 reached or exceeded after 36 days vs negative control
Description: Greenhouse tests were conducted using cut fruit tree branches placed in water jars and maintained under controlled conditions with temperature regulation at approximately 22° C. and natural lighting. C4: Grape, Type Pinot Noir Grape: Vitis vinifera subsp. vinifera type Pinot Noir is an important and high quality red wine type that has existed for possibly 2000 years. It is cultivated all over the world because the type produces high quality red wines and has sufficient winter frost resistance. The type requires early and good areas with deep, warm, medium-heavy and fertile soils with good water supply. Pinot Noir produces regular, medium-high to high yields. However, there are a large number of clones that differ in yield, berry size and looseness. […] The test solutions were prepared directly, i.e. without intermediate preparation of a concentrate. For each of the test substances A-1 to A-13, an aqueous solution of 0.15 mol of the test substance and 0.15 g BreakThru® OE-446 was prepared and filled up to a total of 500 g with water. Of bis-cyanamides A-14 and A-15, 0.075 mol each was filled up to 500 g in an analogous manner. These test solutions (in combination with the above 4 species/types Cx) were given the test numbers Cx-A1 to Cx-A15. […] This was done with the following evaluation scale: • Stage 0: […] Flower buds fully developed, but still closed, white petals already visible. […] Flowers fully open or, in the case of grapevine, unfolding of the flower roots (“[…]”) on the fully leafed sprouts.

[5] = T1 (14 d), 0.15 mol (A-14, A-15: 0.075 mol) per 500 g solution
[6] = stage 4 reached or exceeded after 27 days vs negative control

Row | SMILES | Bud development stage, apple branches C1 [1, 5] | Bud development stage, apple branches C1 ([1]; T2 (16 d)) | Bud development stage, apple branches C1 ([1]; T3 (21 d)) | Bud development stage, apple branches C1 ([1]; T4 (27 d)) | Bud development stage, apple branches C1 ([1]; T5 (36 d)) | Bud development stage, apple branches C1 ([1]; T6 (56 d)) | Bud development stage, apple branches C2 [2, 5] | Bud development stage, apple branches C2 ([2]; T2 (16 d)) | Bud development stage, apple branches C2 ([2]; T3 (21 d)) | Bud development stage, apple branches C2 ([2]; T4 (27 d)) | Bud development stage, apple branches C2 ([2]; T5 (36 d)) | Bud development stage, apple branches C2 ([2]; T6 (56 d)) | Bud development stage, cherry branches C3 [3, 5] | Bud development stage, cherry branches C3 ([3]; T2 (16 d)) | Bud development stage, cherry branches C3 ([3]; T3 (21 d)) | Bud development stage, cherry branches C3 ([3]; T4 (27 d)) | Bud development stage, cherry branches C3 ([3]; T5 (36 d)) | Bud development stage, cherry branches C3 ([3]; T6 (56 d)) | Bud development stage, wine sprouts C4 [4, 5] | Bud development stage, wine sprouts C4 ([4]; T2 (16 d)) | also measured
1 | N#CNC=O.[Na] [Example A-2, Sodium Formylcyanamide] | 0 | 0 | 4 | 5 | 5 | 5 | 0 | 0 | 1 | 3 | 5 | 5 | 1 | 2 | 5 | 5 | 5 | 5 | 0 | 1 | Good to very good dormancy-breaking effect, apple C1 [1, 6]: good to very good dormancy-breaking effect; Dormancy-breaking effect according to the definition, apple C1 [1]: dormancy-breaking effect; Dormancy-breaking effect according to the definition, apple C2 [2]: dormancy-breaking effect; Good to very good dormancy-breaking effect, cherry C3 [3]: good to very good dormancy-breaking effect; Dormancy-breaking effect according to the definition, cherry C3 [3]: dormancy-breaking effect; Bud development stage, wine sprouts C4 ([4]; T3 (21 d)): 3; Bud development stage, wine sprouts C4 ([4]; T4 (27 d)): 5; Bud development stage, wine sprouts C4 ([4]; T5 (36 d)): 5; Bud development stage, wine sprouts C4 ([4]; T6 (56 d)): 5; Effect compared with cyanamide, wine C4 ([4]; in vivo): equal effect with cyanamide; Good to very good dormancy-breaking effect, wine C4 [4, 6]: good to very good dormancy-breaking effect; Dormancy-breaking effect according to the definition, wine C4 [4]: dormancy-breaking effect
2 | COC(=O)NC#N.[Na] [Example A-3, Sodium methoxy carbonyl cyanamide] | 1 | 1 | 2 | 3 | 4 | 5 | 0 | 0 | 0 | 2 | 4 | 4 | 0 | 0 | 0 | 1 | 3 | 5 | 0 | 0 | Dormancy-breaking effect according to the definition, apple C1 [1]: dormancy-breaking effect; Dormancy-breaking effect according to the definition, apple C2 [2]: dormancy-breaking effect; Bud development stage, wine sprouts C4 ([4]; T3 (21 d)): 0; Bud development stage, wine sprouts C4 ([4]; T4 (27 d)): 1; Bud development stage, wine sprouts C4 ([4]; T5 (36 d)): 5; Bud development stage, wine sprouts C4 ([4]; T6 (56 d)): 5; Dormancy-breaking effect according to the definition, wine C4 [4]: dormancy-breaking effect
3 | N#CNC(=O)c1ccccc1.[Na] [Example A-4, Sodium benzoyl cyanamide] | 1 | 1 | 1 | 2 | 3 | 4 | 0 | 0 | 0 | 1 | 2 | 2 | 1 | 2 | 4 | 4 | 5 | 5 | 0 | 0 | Good to very good dormancy-breaking effect, cherry C3 [3]: good to very good dormancy-breaking effect; Dormancy-breaking effect according to the definition, cherry C3 [3]: dormancy-breaking effect; Bud development stage, wine sprouts C4 ([4]; T3 (21 d)): 0; Bud development stage, wine sprouts C4 ([4]; T4 (27 d)): 3; Bud development stage, wine sprouts C4 ([4]; T5 (36 d)): 5; Bud development stage, wine sprouts C4 ([4]; T6 (56 d)): 5; Dormancy-breaking effect according to the definition, wine C4 [4]: dormancy-breaking effect
